Measurements as given in patent publication US11370825B2, “Polypeptides, cells, and methods involving engineered CD16” (Regents of the University of Minnesota, priority 2014, dated 2022).

Legend:
[1] = test system: ADAM17; experiment: Anti-ADAM17 mAb staining of NK92 cells expressing CD16a or CD16a/S197P, flow cytometry; format: cell-based, human; conditions: NK92 cells expressing CD16a compared with CD16a/S197P; multiple anti-ADAM17 mAbs
Description: FIG. 4. Effects of the engineered S197P mutation on CD16a shedding in NK cells. NK92 cells transduced with empty vector (vector only), CD16a, or CD16a/S197P were treated without (Unstim.) or with PMA (100 ng/ml) for 30 minutes at 37° C. (A), with IL-12 and IL-18 (100 ng/ml and 400 ng/ml, respectively) for 24 hours at 37° C. (B), or with Raji cells and rituximab for 60 minutes at 37° C. (C). Cell surface levels of CD16a were determined by flow cytometry. Isotype-matched negative control antibody staining is indicated by a dotted line. […] Soluble CD16a levels were determined by ELISA. […] For all histogram plots, the x-axis=Log 10 fluorescence, the y-axis=cell number, and the data are representative of at least 3 independent experiments.
(§1) For cell staining, nonspecific antibody binding sites were blocked and cells were stained with the indicated antibodies and examined by flow cytometry, as previously described (Wang et al., 2013, Biochim Biophys Acta. 1833:680-685; Romee et al., 2013, Blood 121:3599-3608). […] Human CD16 was detected by the mAbs 3G8 (BioLegend, Inc., San Diego, Calif.) and DJ130c (Santa Cruz Biotech, Santa Cruz, Calif.). CD107a was detected by the mAb H4A3 (Biolegend, Inc., San Diego, Calif.). ADAM17 was detected by the mAbs M220 (Doedens et al., 2000, J Biol Chem. 275:14598-14607), 111633, and 111623 (R&D Systems, Inc., Minneapolis, Minn.). […]

[2] = test system: iPSC-derived NK cells; experiment: Cell surface CD16a on iPSC-derived NK cells stimulated with K562 cells, flow cytometry; format: cell-based, human; conditions: iPSC-derived NK cells with K562 target cells (2:1 ratio), four hours at 37° C.
[3] = test system: monomeric human IgG; experiment: Antibody binding assay: monomeric human IgG and IgA binding to NK92 cells expressing CD16a or CD16a/S197P; conditions: NK92 cells expressing the receptor; IgA 20 μg/ml
Description: (§2) FIG. 5. Effects of the engineered S197P mutation on CD16a function. (A) NK92 cells expressing CD16a or CD16a/S197P at equivalent levels (left panel) were treated with monomeric human IgG (0-20 μg/ml). As controls, cells were also treated with monomeric human IgA (20 μg/ml), and NK92 parent cells were treated with IgG (20 μg/ml) (bar). Antibody binding was determined by flow cytometry, as described in Materials and Methods. […] Statistical significance is indicated as *P<0.05 versus IgG (0 μg/ml), IgA, or NK92 parent cells+IgG. (B) Mock transduced NK92 cells or NK92 cells expressing CD16a or CD16a/S197P were incubated in the absence (Unstim.) or presence of Raji cells treated with or without anti-CD20 rituximab for the indicated time points at 37° C. NK92 cell activation was assessed by the up-regulation in CD107a staining by flow cytometry. For the histogram plots, the x-axis=Log 10 fluorescence and the y-axis=cell number. Data are representative of at least 3 independent experiments.
Cell binding to monomeric human IgG and IgA (Sigma-Aldrich, St. Louis, Mo.) was performed as previously described with some modifications (Dong et al., 2014, Arthritis Rheumatol. 66:1291-1299). […] The cells were washed and then immediately analyzed by flow cytometry.

[4] = test system: NK92 cells; experiment: NK92 cell activation: CD107a up-regulation on incubation with Raji cells with or without rituximab, flow cytometry; format: cell-based, human
Description: as §2
HEK293 and NK92 cells in RPMI 1640 media (Mediatech, Inc., Manassas, Va.) were activated with 15 ng/ml and 100 ng/ml, respectively, PMA for 30 minutes at 37° C. NK92 cells were activated with IL-12 (PeproTech Inc, Rocky Hill, N.J.) and IL-18 (R&D Systems, Inc., Minneapolis, Minn.) at 100 ng/ml and 400 ng/ml, respectively, for the indicated time points. NK92 cell activation through CD16a was mediated by their incubation with the CD20-positive Burkitt's lymphoma cell line Raji (ATCC, grown according to the depository's instructions) (1:1 ratio) treated with the anti-CD20 mAb rituximab (1 μg/ml) (Genentech, Inc., South San Francisco, Calif.), as described previously (Romee et al., 2013, Blood 121:3599-3608). Excess rituximab was removed by washing the Raji cells. In some experiments, NK92 cells were pre-incubated for 30 minutes with the selective ADAM17 inhibitor BMS566394 (5 μM) (Bristol-Myers Squibb Company, Princeton, N.J.). […]
as §1, with “Minn.). Human L-selectin was detected by the mAb LAM1-116 (Ancell Corp., Stillwater, Minn.).” for “Minn.).”

[5] = NK92 cells incubated with Raji cells alone
[6] = NK92 cells incubated with Raji cells treated with rituximab

In the case of “CD16a/S197P: Human CD16a (FcγRIIIa, SEQ ID NO:1) with serine-197 substituted by proline in the membrane proximal cleavage region; expressed recombinantly in cells”, the “ADAM17 cell surface levels” value [1] is reported as “identical cell surface levels”, the “cell surface expression of CD16a after stimulation” value [2] is reported as “remained stable” and the “monomeric IgA binding (control)” value [3] is reported as “essentially background levels”. For the same substance, the “up-regulation of CD107a” value [4, 5] was “marginally up-regulated” and the “up-regulation of CD107a” value [4, 6] was “considerable up-regulation”.

For “CD16a: Wild-type human IgG Fc receptor CD16a (FcγRIIIa), valine allelic variant, recombinant comparator [reference compound]”, the “ADAM17 cell surface levels” value [1] was “identical cell surface levels”, the “cell surface expression of CD16a after stimulation” value [2] was “marked down-regulation” and the “monomeric IgA binding (control)” value [3] was “essentially background levels”. For the same substance, the “up-regulation of CD107a” value [4, 5] was “marginally up-regulated” and the “up-regulation of CD107a” value [4, 6] was “considerable up-regulation”.
